Patent publication US20060293264A1, “STAT3 decoy oligonucleotides and uses therefor” (priority 2004, published 2006)

Experiments:
SCCHN cells (1483) = experiment: Annexin 5-Cy3 apoptosis assay in SCCHN cells; format: cell-based; details: 1483 cells; 25 μM, 6 days; p<0.0001
Description: SCCHN cells (1483) were treated with mutant control decoy (25 μM), or STAT3 decoy alone (25 μM), or cisplatin alone (20 μM), or STAT3 decoy (25 μM) plus cisplatin (20 μM). Mutant control decoy or STAT3 decoy was always applied for a total of 6 days, and cisplatin was added for the last 24 hr before harvesting. The effects of the STAT3 decoy plus cisplatin on apoptosis was assessed by an Annexin 5-Cy3 apoptosis assay (BioVision Research Products, 2455-D Old Middlefield Way, Mountain View, Calif. 94043 USA) and Bcl-xL and Cyclin D1 were examined using immunoblotting as described below.
Following treatment with STAT3 decoy plus cisplatin, SCCHN cells were detached by trypsinization, counted and pelleted (1000 r.p.m. for 5 min). Cell pellets were washed once with PBS (pH 7.4) and resuspended in 100 μl Annexin V binding buffer (10 mM HEPES, pH 7.4, 140 mM NaCl, 2.5 mM CaCl2). […] The membranes of apoptotic cells are stained a bright orange color when analyzed with a fluorescence microscope. The ratio (percentage) of apoptotic to total cells (apoptotic plus non-apoptotic cells) was calculated for each high power field. For each treatment, 5-10 high power fields of view were quantitated on each section.

[1] = tested on: normal mucosal epithelial cells; details: cited from earlier work
[2] = tested on: SCCHN xenografts (1483 cells); experiment: In vivo apoptosis determination by TUNEL in harvested xenografts; parameters: species or system athymic nude mice; details: xenografts harvested after 25 treatments; p=0.00038
Description: In vivo apoptosis determinations. Detection and quantitation of apoptosis was performed by the TUNEL reaction, using the In Situ Cell Death Detection Kit, POD (Roche Diagnostics GmbH, Roche Applied Science, Sandhofer Strasse 116, D-68305 Mannheim, Germany). Cryostat sections were fixed in 4% paraformaldehyde in PBS for 30 min. After washing with PBS for 30 min, the sections were incubated in permeabilization solution (0.1% Triton X-100, 0.1% sodium citrate) for 2 min on ice. The sections were washed twice with PBS before the samples were incubated for 60 min at 37° C. with TUNEL reaction mixture to label DNA strand breaks with Fluorescein-dUTP. After washing three times with PBS, the samples were incubated with Converter-POD for 30 min at 37° C., washed again with PBS, and finally exposed to 0.025% 3,3′-diaminobenzidine (DAB)/0.01% H2O2 in Tris-HCl buffer (pH 7.4) for 10 min. The number of apoptotic cells per high-power field (HPF) was counted. For each treatment, five samples were evaluated, and 5-10 fields of view were quantified on each section.
In vivo tumor xenograft studies. Female athymic nude mice nu/nu (4-6 weeks old; 20±2 g; Harlan-Sprague-Dawley) were implanted with 1×10^6 1483 cells into the right and left flank with a 26-gauge needle/1 ml tuberculin syringe, resulting in two tumors per mouse. […]

Cyclin D1 = Cyclin D1 expression by immunoblotting in harvested xenografts; format: in vivo, human; details: decoy alone, p=0.0022
Description: Immunoblotting. Whole cell extracts were mixed with 2× sodium dodecyl sulfate (SDS) sample buffer (125 mmol/L Tris-HCL, pH 6.8; 4% SDS; 20% glycerol; 10% 2 mercaptoethanol) at 1:1 ratio and were heated for 5 min at 100° C. Proteins (50 μg/lane) were separated by 12.5% SDS-PAGE and transferred onto a nitrocellulose membrane (MSI; Westboro, Mass). Prestained molecular weight markers (GIBCO BRL; Gaithersburg, MD) were included in each gel. Membranes were blocked for 30 min in Tris-buffered saline (TBS: 10 mmol/L Tris-HCL, pH 7.5 and 150 mmol/L NaCl) with 0.5% Tween-20 (TBST) and 5% BSA. After blocking, membranes were incubated with a primary antibody; rabbit anti-human VEGF polyclonal antibody, rabbit anti-human Cyclin D1 polyclonal antibody, mouse anti-human Bcl-xL monoclonal antibody, or rabbit anti-human PCNA polyclonal antibody (Santa Cruz Biotechnology, Santa Cruz, Calif.), in TBST and 1% BSA. […] Quantification of Cyclin D1 and Bcl-xL was performed by using a Molecular Dynamics Personal Densitometer SI and IMAGEQUANT software (Image Products International, Chantilly, Va.). Immunoblotting bands were quantified by densitometry and the Molecular Analyst software (AlphaDigidoc 1000, Alpho-Innotech) with normalization of each band to their corresponding loading control (Xi, S., et al. J Biol Chem, 278: 31574-31583, 2003). […]

STAT3 decoy (sense CATTTCCCGTAAATC; antisense GATTTACGGGAAATG; phosphorothioate modified, further chemistry not given here; listed as Homo sapiens)
apoptosis compared with mutant control decoy (SCCHN cells (1483)): increased
toxicity to normal mucosal epithelial cells [1]: lack toxicity
increase in apoptosis (TUNEL) compared with mutant control decoy [2]: 3.25 fold
Cyclin D1 expression levels compared with mutant control decoy (Cyclin D1): significant effect
